From patent US5747239A, “Synthetic peptides specific for the detection of antibodies to HCV, diagnosis of HCV infection and preventions thereof as vaccines” (United Biomedical, Inc., priority 1994, dated 1998)

B1: HLHAPTGSGKSTKVPAAYAAQGYKVLVLNPSVAATLGFGAYMSKAHGIDPNIRTGVRTITTGSPITYSTYGKFLADGGCSGGAYDIIICDECHS (peptide)
chain: HLHAPTGSGKSTKVPAAYAAQGYKVLVLNPSVAATLGFGAYMSKAHGIDPNIRTGVRTITTGSPITYSTYGKFLADGGCSGGAYDIIICDECHS
B2: TMRSPVFTDNSSPPVVPQSFQVAHLHAPTGSGKSTKVPAAYAAQGYKVLVLNPSVAATLGFGAYMSKAHGIDPNIRTGVRTITTGSPITYSTYGKFLADGGCSGGAYDIIICDECHS (peptide)
chain: TMRSPVFTDNSSPPVVPQSFQVAHLHAPTGSGKSTKVPAAYAAQGYKVLVLNPSVAATLGFGAYMSKAHGIDPNIRTGVRTITTGSPITYSTYGKFLADGGCSGGAYDIIICDECHS

Key:
Format in all cases: binding, human
antibodies to HCV [1] = experiment: NS-1 peptide ELISA, early and late HCV infection panels
Experimental: In addition, all sixteen NS-1 peptides were tested on panels of samples representing HCV-antibody positive donors (n=9) in an early stage of infection, namely plasmapheresis donors with the first occurrence of an ALT level >100 i.u./L, and those asymptomatic individuals (n=14) disqualified from blood donation because of a reactive result for anti-HIV or HBc, for whom the anti-HCV result probably represents a past infection.
These select panels were chosen from hundreds of HCV positive sera for their ability to recognize NS-1 antigens. For both groups, peptide designated as 232A (pep2) had the greatest immunoreactivity. Using pep2 as a standard, the relative immunoreactivity of each peptide was calculated (Table 3C).

antibodies to HCV [2] = experiment: NS-1 peptide ELISA, Panel II (asymptomatic individuals, mainland China and Taiwan); conditions: for % IP: NS-1 peptides, Panel II (CH1-CH7), relative to pep1 (231C)
Experimental: Wells of 96-well plates were coated for 1 hour at 37° C. with each of the 16 peptides (designated as peptides 241A-C, 231A-E, 232A-D, 233C, 234A-C), synthesized according to sequences derived from the NS-1 region (Table 3A), at 5 ug/mL at 100 uL per well in 10 mM NaHCO3 buffer, pH 9.5. Each peptide's immunoreactivity was measured as previously described (see Example 1), using an 8 member serum panel (Panel I).
A panel of serum samples from individuals coming from regions in which hepatitis C is endemic, namely mainland China and Taiwan, were tested for evidence of reactivity to these NS-1 protein derived peptides. Twenty-four samples were chosen from individuals who had no recognizable symptoms of non-A, non-B hepatitis and for whom the peptide based HCV EIA, Format C, as described in Example 11, was nonreactive. Seven of the 24 samples (29%) were reactive against one or more peptides from the NS-1 region, indicative of the presence of long term protective antibodies responsive to this region. This 7 member panel (designated as Panel II, CH1-CH7) was used to further characterize these NS-1 peptides for their immunoreactivity.
The peptide with the greatest reactivity against the serum Panel II again was pep1 (designated 231c in Table 3A). Using this peptide as a standard, the relative immunoreactivity for each of the other 15 peptides from the NS-1 region are calculated in Table 3A.

antibodies to HCV [3] = experiment: Peptide ELISA for relative immunoreactivity, 8 member HCV serum panel (Panel I)
Experimental: As an example to illustrate how relative (%) immunoreactivity for HCV synthetic peptides is measured, wells of 96-well plates are coated for 1 hour at 37° C., with each of the following peptides: IIH, V, VIIIE and pep11 at 5 ug/mL at 100 uL per well in 10 mM NaHCO3 buffer, pH 9.5. The peptide coated wells were then incubated with 250 uL of 3% by weight of gelatin in PBS in 37° C. for 1 hour to block non-specificprotein binding sites, followed by three washes with PBS containing 0.05% by volume of TWEEN 20 and then dried. The test specimens containing a panel of eight well-characterized HCV antibody positive patient sera were diluted with PBS containing 20% by volume normal goat serum, 1% by weight gelatin and 0.05% by volume TWEEN 20 at dilutions of 1:20 volume to volume, respectively. 200 uL of the diluted specimens were added to each of the wells and allowed to react for 15 minutes at 37° C.
The wells were then washed six times with 0.05% by volume TWEEN 20 in PBS in order to remove unbound antibodies. Horseradish peroxidase conjugated goat anti-human IgG was used as a second antibody tracer to bind with the HCV antibody-peptide antigen complex formed in positive wells. 100 uL of peroxidase labeled goat anti-human IgG at a dilution of 1:1800 in 1% by volume normal goat serum, 0.05% by volume TWEEN 20 in PBS was added to each well and incubated at 37° C. for another 15 minutes.
The wells were washed six times with 0.05% by volume TWEEN 20 PBS to remove unbound antibody and reacted with 100 uL of the substrate mixture containing 0.04% by weight orthophenylenediamine (OPD) and 0.12% by volume hydrogen peroxide in sodium citrate buffer, pH 5.0.
This substrate mixture was used to detect the peroxidase label by forming a colored product. Reactions were stopped by the addition of 100 uL of 1.0M H2 SO4 and the A492 mm measured. Results of relative immunoreactivity for each of the peptides obtained from this study are shown in Table A using peptide II H as the reference.

antibodies to HCV [4] = experiment: as above; conditions: NS-3 peptides (Tables 4B-4D), relative to pep3 (279A)
[5] = Early HCV Infection panel, n = 9
[6] = Late HCV Infection panel, n = 14

| Molecule | % Relative Immunoreactivity in comparison to Pep2 (232A) (antibodies to HCV [1]; [5]) [%] | % Relative Immunoreactivity in comparison to Pep2 (232A) (antibodies to HCV [1]; [6]) [%] | % IP (antibodies to HCV [2]) [%] | % Relative Immunoreactivity (antibodies to HCV [4]) [%] | other results |
| --- | --- | --- | --- | --- | --- |
| RPYCWHYPPKPCGIVPAKSVCGPVYC [231A] | 46.8 | 48.4 | 83.2 |  |  |
| SWGENDTDVFVLNNTRPPLGNWFGCTWMNSTGFTKVCGAPPC [232C] | 21.7 | 22.0 | 27.9 |  |  |
| ANGSGPDQRPYCWHYPPKPCGIVPAKSVCGPVYC [231B] | 30.9 | 46.7 | 96.4 |  |  |
| DRSGAPTYSWGENDTDVFVLNNTRPPLGNWFGCTWMNSTGFTKVCGAPPC [232D] | 50.0 | 46.7 | 25.9 |  | Absorbance (antibodies to HCV [3]; Panel I sample 4): 785 mA; result with the remaining 7 panel members (antibodies to HCV [3]; Panel I without sample 4): negative |
| RTITTGSPITYSTYGKFLADGGCSGGAYDIIICDECHS [275A] |  |  |  | 18.2 |  |
| QGWGPISYANGSGPDQRPYCWHYPPKPCGIVPAKSVCGPVYC [231C] | 88.6 | 62.7 | 100.0 |  | immunopotency index (antibodies to HCV [3]; Panel I, compared with peptide VIIIE): 13.9%; A492 nm by EIA (mA) (antibodies to HCV [2]; Panel II sample CH-1): 2237 mA; A492 nm by EIA (mA) (antibodies to HCV [2]; Panel II sample CH-2): 2472 mA; A492 nm by EIA (mA) (antibodies to HCV [2]; Panel II sample CH-3): 171 mA; A492 nm by EIA (mA) (antibodies to HCV [2]; Panel II sample CH-4): 218 mA; A492 nm by EIA (mA) (antibodies to HCV [2]; Panel II sample CH-5): 311 mA; A492 nm by EIA (mA) (antibodies to HCV [2]; Panel II sample CH-6): 247 mA; A492 nm by EIA (mA) (antibodies to HCV [2]; Panel II sample CH-7): 206 mA |
| PNIRTGVRTITTGSPITYSTYGKFLADGGCSGGAYDIIICDECHSTDAT [262D] |  |  |  | 9.3 |  |
| YGKFLADGGCSGGAYDIIICDECHSTDAT [262A] |  |  |  | 6.9 |  |
| AYMSKAHGIDPNIRTGVRTITTGSPITYSTYGKFLADGGCSGGAYDIIICDECHSTDAT [262E] |  |  |  | 3.6 |  |
| FLADGGCSGGAYDIIICDECHSTDATSILGIGTVLDQAETAG [279B] |  |  |  | 3 |  |
| EVALSTTGEIPFYGKAIPLEVIKGGRHLIFCHSKKKCDEL [261B] |  |  |  | 3.1 |  |
| QGWGPISYANGSGPDQRPYCWHYPPKPCGIVPAKSVC [241A] | 23.9 | 43.8 | 63.9 |  |  |
| VGGVEHRLEAACNWTRGERCDLEDRDRSELS [234B] | 13.2 | 20.9 | 17.9 |  |  |
| TVLDQAETAGARLVVLATATPPGSVTVPHPNIEEVAL [274A] |  |  |  | 2.0 |  |
| EAACNWTRGERCDLEDRDRSELS [234A] | 9.5 | 15.7 | 20.5 |  | A492 nm by EIA (mA) (antibodies to HCV [2]; Panel II sample CH-1): 118 mA; A492 nm by EIA (mA) (antibodies to HCV [2]; Panel II sample CH-2): 232 mA; A492 nm by EIA (mA) (antibodies to HCV [2]; Panel II sample CH-3): 64 mA; A492 nm by EIA (mA) (antibodies to HCV [2]; Panel II sample CH-4): 227 mA; A492 nm by EIA (mA) (antibodies to HCV [2]; Panel II sample CH-5): 206 mA; A492 nm by EIA (mA) (antibodies to HCV [2]; Panel II sample CH-6): 202 mA; A492 nm by EIA (mA) (antibodies to HCV [2]; Panel II sample CH-7): 151 mA |
| CPERLASCRPLTDFDQGWGPISYANGSGPDQRPYCWHYPPKPCGIVPAKSVC [241C] | 44.7 | 84.7 | 93.6 |  |  |
| TIFKIRMYVGGVEHRLEAACNWTRGERCDLEDRDRSELS [234C] | 12.1 | 44.5 | 8.8 |  |  |
| CPERLASCRPLTDFDQGWGPISYANGSGPDQRPYCWHYPPKPCGIVPAKSVCGPVYC [231E] | 70.9 | 83.4 | 87.6 |  |  |
| CRPLTDFDQGWGPISYANGSGPDQRPYCWHYPPKPCGIVPAKSVC [241B] | 32.7 | 75.0 | 92.9 |  |  |
| TTGSPITYSTYGKFLADGGCSGGAYDIIICDECHSTDAT [262B] |  |  |  | 4.7 |  |
| CRPLTDFDQGWGPISYANGSGPDQRPYCWHYPPKPCGIVPAKSVCGPVYC [231D] | 23.3 | 43.5 | 65.3 |  |  |
| RTITTGSPITYSTYGKFLADGGCSGGAYDIIICDECHSTDATSILGIGTVLDQAETAG [279E] |  |  |  | 2.2 |  |
| VFVLNNTRPPLGNWFGCTWMNSTGFTKVCGAPPC [232B] | 91.4 | 83.5 | 82.9 |  |  |
| GCSGGAYDIIICDECHSTDATSILGIGTVLDQAETAG [279A] |  |  |  | 100.0 |  |
| LHCPTDCFRKHPDATYSRCGSGPWITPRCLVDYPYRLWHWPC [233C] | 9.9 | 17.5 | 16.8 |  | A492 nm by EIA (mA) (antibodies to HCV [2]; Panel II sample CH-1): 123 mA; A492 nm by EIA (mA) (antibodies to HCV [2]; Panel II sample CH-2): 174 mA; A492 nm by EIA (mA) (antibodies to HCV [2]; Panel II sample CH-3): 72 mA; A492 nm by EIA (mA) (antibodies to HCV [2]; Panel II sample CH-4): 238 mA; A492 nm by EIA (mA) (antibodies to HCV [2]; Panel II sample CH-5): 114 mA; A492 nm by EIA (mA) (antibodies to HCV [2]; Panel II sample CH-6): 175 mA; A492 nm by EIA (mA) (antibodies to HCV [2]; Panel II sample CH-7): 89 mA |
| B1 |  |  |  | 9.6 |  |
| B2 |  |  |  | 5.4 |  |
